Measured values reported in patent publication US7173151B2, “Cycloalkyl-substituted alkanoic acid derivatives, processes for their preparation and their use as pharmaceuticals” (Sanofi-AventisDeutschand GmbH, priority 2003, dated 2007).

Target: T1, GR-GAL4-humanPPARalpha-LBD (Homo sapiens, UniProt Q07869)
T1 construct: amino acids S167–Y468; expressed in transfected cells; host or cells: HEK cells, stably transfected (pcDNA3, CMV promoter)
T1 sequence (Q07869 167-468): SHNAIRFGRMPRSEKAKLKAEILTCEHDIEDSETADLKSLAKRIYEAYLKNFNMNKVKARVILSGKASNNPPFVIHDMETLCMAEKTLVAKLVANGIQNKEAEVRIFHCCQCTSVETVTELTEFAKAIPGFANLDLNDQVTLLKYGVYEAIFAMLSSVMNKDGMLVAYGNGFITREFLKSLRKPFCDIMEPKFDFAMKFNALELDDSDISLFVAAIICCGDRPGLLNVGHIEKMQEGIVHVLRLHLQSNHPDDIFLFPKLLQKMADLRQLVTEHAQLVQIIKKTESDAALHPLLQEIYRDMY
Test: Cellular PPARalpha assay (luciferase reporter, stably transfected HEK cell line)
Format: cell-based
Description: Determination of EC50 Values of PPAR Agonists in the Cellular PPARalpha Assay
The potency of substances which bind to human PPARalpha and activate in an agonistic manner is analyzed using a stably transfected HEK cell line (HEK=human embryo kidney) which is referred to here as PPARalpha reporter cell line. It contains two genetic elements, a luciferase reporter element (pdeltaM-GAL4-Luc-Zeo) and a PPARalpha fusion protein (GR-GAL4-humanPPARalpha-LBD) which mediates expression of the luciferase reporter element depending on a PPARalpha ligand. The stably and constitutively expressed fusion protein GR-GAL4-humanPPARalpha-LBD binds in the cell nucleus of the PPARalpha reporter cell line via the GAL4 protein portion to the GAL4 DNA binding motifs 5′-upstream of the luciferase reporter element which is integrated in the genome of the cell line. There is only little expression of the luciferase reporter gene without addition of a PPARalpha ligand if fatty acid-depleted fetal calf serum (cs-FCS) is used in the assay. PPARalpha ligands bind and activate the PPARalpha fusion protein and thereby bring about expression of the luciferase reporter gene. The luciferase which is formed can be detected by means of chemiluminescence via an appropriate substrate.
The PPARalpha reporter cell line was prepared in 2 stages. Firstly, the luciferase reporter element was constructed and stably transfected into HEK cells. For this purpose, five binding sites of the yeast transcription factor GAL4 (each 5′-CGGAGTACTGTCCTCCGAG-3′) (SEQ ID No. 1) were cloned in 5′-upstream of a 68 bp-long minimal MMTV promoter (Genbank Accession #V01175). The minimal MMTV promoter section contains a CCAAT box and a TATA element in order to enable efficient transcription by RNA polymerase II. The cloning and sequencing of the GAL4-MMTV construct took place in analogy to the description of Sambrook J. et. al. (Molecular cloning, Cold Spring Harbor Laboratory Press, 1989). Then the complete Photinus pyralis gene (Genbank Accession #M15077) was cloned in 3′-downstream of the GAL4-MMTV element. After sequencing, the luceriferase reporter element consisting of five GAL4 binding sites, MMTV promoter and luciferase gene was recloned into a plasmid which confers zeocin resistance in order to obtain the plasmid pdeltaM-GAL4-Luc-Zeo. This vector was transfected into HEK cells in accordance with the statements in Ausubel, F. M. et al. (Current protocols in molecular biology, Vol. 1–3, John Wiley & Sons, Inc., 1995).
In a second step, the PPARalpha fusion protein (GR-GAL4-humanPPARalpha-LBD) was introduced into the stable cell clone described. For this purpose, initially the cDNA coding for the N-terminal 76 amino acids of the glucocorticoid receptor (Genbank Accession #P04150) was linked to the cDNA section coding for amino acids 1–147 of the yeast transcription factor GAL4 (Genbank Accession #P04386). The cDNA of the ligand-binding domain of the human PPARalpha receptor (amino acids S167–Y468; Genbank Accession #S74349) was cloned in at the 3′-end of this GR-GAL4 construct. The fusion construct prepared in this way (GR-GAL4-humanPPARalpha-LBD) was recloned into the plasmid pcDNA3 (from Invitrogen) in order to enable constitutive expression therein by the cytomegalovirus promoter. This plasmid was linearized with a restriction endonuclease and stably transfected into the previously described cell clone containing the luciferase reporter element. The finished PPARalpha reporter cell line which contains a luciferase reporter element and constitutively expresses the PPARalpha fusion protein (GR-GAL4-human PPARalpha-LBD) was isolated by selection with zeocin (0.5 mg/ml) and G418 (0.5 mg/ml).
The activity of PPARalpha agonists is determined in a 3-day assay which is described below: […]

| Structure (SMILES) | EC50 |
| --- | --- |
| CCCCCCCN(CCO[C@@H]1CCC[C@H](CCC(CC)C(=O)O)C1)C(=O)NCCCC (relative stereo) [Example 2, 4-{cis-3-[2-(3-butyl-1-heptylureido)ethoxy]cyclohexyl}-2-ethylbutyric acid] | 1 nM |
| CCCCCCCN(CCO[C@@H]1CCC[C@H](CCC(C)(C)C(=O)O)C1)C(=O)NC1CCCCC1 (racemic) [Example 11, 4-{cis-3-[2-(3-cyclohexyl-1-heptylureido)ethoxy]cyclohexyl}-2,2-dimethylbutyrate] | 28 nM |
| CCCCCCCN(CCOC1CCCC(CCC(C)(C)C(=O)O)C1)C(=O)NCCCC (racemic) [Example 9, 4-{cis-3-[2-(3-butyl-1-heptylureido)ethoxy]cyclohexyl)-2,2-dimethylbutyric acid] | 8.8 nM |
| CCCCCCCN(CCO[C@@H]1CCC[C@H](CCC(C(=O)O)C(C)C)C1)C(=O)NCCCC (relative stereo) [Example 5, 2-(2-{cis-3-[2-(3-butyl-1-heptylureido)ethoxy]cyclohexyl}ethyl)-3-methylbutyric acid] | 0.38 nM |

Now from value to molecule:

| EC50 | Structure (SMILES) |
| --- | --- |
| 74 nM | CCCCNC(=O)N(CCO[C@@H]1CCC[C@H](CCC(C)(C)C(=O)O)C1)Cc1ccc(C)cc1 (relative stereo) [Example 10, 4-(cis-3-{2-[3-butyl-1-(4-methylbenzyl)ureido]ethoxy}cyclohexyl)-2,2-dimethylbutyric acid] |
| 1.1 nM | CCC(CCC1CCCC(OCCN(Cc2ccc(C)cc2)C(=O)NC2CCCCC2)C1)C(=O)O (racemic) [Example 1, 4-(cis-3-{2-[3-cyclohexyl-1-(4-methylbenzyl)ureido]ethoxy}cyclohexyl)-2-ethylbutyric acid] |
| 0.56 nM | CCCCCCCN(CCO[C@@H]1CCC[C@H](CCC(CC)C(=O)O)C1)C(=O)NC1CCCCC1 (relative stereo) [Example 3, 4-{cis-3-[2-(3-cyclohexyl-1-heptylureido)ethoxy]cyclohexyl}-2-ethylbutyric acid] |
